Source: ChEMBL document CHEMBL5154652, “Design, synthesis and anti-hepatocellular carcinoma activity of 3-arylisoquinoline alkaloids” (Eur J Med Chem, 2022)
Active and inactive are the calls of the source. No cut-off for these calls is given here.

Experiments:
HCCLM9 [1] = test: Inhibition of cell migration in human HCCLM9 cells at 1.25 to 5 uM after 24 hrs by transwell assay; format: functional, cell-based; settings: dose 1.25-5 µM
A549 = test: Antiproliferative activity against human A549 cells after 72 hrs by MTT assay; format: functional, cell-based; settings: A549, 72 h
[2] = MRT (0 to t)in male Sprague-Dawley rat at 100 mg/kg, ip; format: ADME, organism-based; settings: in vivo
Huh-7 [3] = test: Induction of apoptosis in human Huh-7 cells assessed as increase in cytochrome C expression at 5 to 20 uM; format: functional, cell-based; settings: dose 5-20 µM
HCCLM9 [4] = test: Induction of mitochondrial dysfunction in human HCCLM9 cells assessed as decrease in MMP levels at 5 to 20 uM; format: functional, cell-based; settings: dose 5-20 µM
Huh-7 [5] = test: Induction of apoptosis in human Huh-7 cells at 5 to 20 uM measured by Hoechst staining method; format: functional, cell-based; settings: dose 5-20 µM
HCCLM9 [6] = test: Induction of apoptosis in human HCCLM9 cells assessed as increase in cytochrome C expression at 3.75 to 15 uM; format: functional, cell-based; settings: dose 3.75-15 µM
Huh-7 [7] = test: Induction of mitochondrial apoptosis in human Huh-7 cells assessed as inhibition of p-mTOR levels at 5 to 20 uM measured after 48 hrs by Western blot analysis; format: functional, cell-based; settings: dose 5-20 µM
HCCLM9 [8] = test: Induction of cell cycle arrest in human HCCLM9 cells assessed as increase in cell accumulation at G2/M phase at 3.75 to 15 uM measured after 48 hrs by flow cytometry analysis; format: functional, cell-based; settings: dose 3.75-15 µM
HCCLM9 [9] = test: Induction of apoptosis in human HCCLM9 cells at 3.5 to 14 uM measured by Hoechst staining method; format: functional, cell-based; settings: dose 3.5-14 µM
Huh-7 [10] = test: Induction of cell cycle arrest in human Huh-7 cells assessed as decrease in cell accumulation at S phase at 5 to 20 uM measured after 48 hrs by flow cytometry analysis; format: functional, cell-based; settings: dose 5-20 µM
HCCLM9 [11] = test: Inhibition of cell invasion in human HCCLM9 cells at 1.25 to 5 uM after 24 hrs; format: functional, cell-based; settings: dose 1.25-5 µM
HepG2 = test: Antiproliferative activity against human HepG2 cells after 72 hrs by MTT assay; format: functional, cell-based; settings: HepG2, 72 h
HL-60 = test: Antiproliferative activity against human HL-60 cells after 72 hrs by MTT assay; format: functional, cell-based; settings: HL-60, 72 h
[12] = Tmax in male Sprague-Dawley rat at 100 mg/kg, ip; format: ADME, organism-based; settings: in vivo
HCCLM9 [13] = test: Antiproliferative activity against human HCCLM9 cells at 1.25 to 5 uM after 24 hrs by EdU incorporation assay; format: functional, cell-based; settings: dose 1.25-5 µM
[14] = Observed apparent oral clearance in male Sprague-Dawley rat at 100 mg/kg, ip; format: ADME, organism-based; settings: in vivo
[15] = Toxicity in male BALB/c nude mouse xenografted with human HCCLM9 cells assessed as effect on body weight at 15 mg/kg, iv administered once a day for 21 days; format: organism-based; settings: in vivo, 504 h, time 21 day
HCCLM9 [16] = test: Anticlonogenic activity in human HCCLM9 cells at 1.25 to 5 uM measured by colony formation assay; format: functional, cell-based; settings: dose 1.25-5 µM
Huh-7 [17] = test: Inhibition of MMP-9 expression in human Huh-7 cells at 5 to 20 uM measured by western blot analysis; format: functional, cell-based; settings: dose 5-20 µM
MCF7 = test: Antiproliferative activity against human MCF7 cells after 72 hrs by MTT assay; format: functional, cell-based; settings: MCF7, 72 h
SK-HEP1 = test: Antiproliferative activity against human SK-HEP1 cells after 72 hrs by MTT assay; format: functional, cell-based; settings: SK-HEP1, 72 h
HCCLM9 [18] = test: Induction of apoptosis in human HCCLM9 cells assessed as reduction in Bcl-2 expression at 3.75 to 15 uM; format: functional, cell-based; settings: dose 3.75-15 µM
HCCLM9 [19] = test: Antiproliferative activity against human HCCLM9 cells after 72 hrs by MTT assay; format: functional, cell-based; settings: HCCLM9, 72 h
Huh-7 [20] = test: Induction of apoptosis in human Huh-7 cells assessed as increase in Bax expression at 5 to 20 uM; format: functional, cell-based; settings: dose 5-20 µM
HCCLM9 [21] = test: Induction of apoptosis in human HCCLM9 cells at 3.5 to 14 uM measured by Annexin V /propidium iodide staining method; format: functional, cell-based; settings: dose 3.5-14 µM
[22] = molecular target: DNA topoisomerase 1 (Homo sapiens) (UniProt P11387); test: Inhibition of DNA topoisomerase 1 (unknown origin) at 25 to 50 uM measured by agar gel electrophoresis relative to control; settings: dose 25-50 µM
Chain of DNA topoisomerase 1 (Homo sapiens) (P11387 whole entry): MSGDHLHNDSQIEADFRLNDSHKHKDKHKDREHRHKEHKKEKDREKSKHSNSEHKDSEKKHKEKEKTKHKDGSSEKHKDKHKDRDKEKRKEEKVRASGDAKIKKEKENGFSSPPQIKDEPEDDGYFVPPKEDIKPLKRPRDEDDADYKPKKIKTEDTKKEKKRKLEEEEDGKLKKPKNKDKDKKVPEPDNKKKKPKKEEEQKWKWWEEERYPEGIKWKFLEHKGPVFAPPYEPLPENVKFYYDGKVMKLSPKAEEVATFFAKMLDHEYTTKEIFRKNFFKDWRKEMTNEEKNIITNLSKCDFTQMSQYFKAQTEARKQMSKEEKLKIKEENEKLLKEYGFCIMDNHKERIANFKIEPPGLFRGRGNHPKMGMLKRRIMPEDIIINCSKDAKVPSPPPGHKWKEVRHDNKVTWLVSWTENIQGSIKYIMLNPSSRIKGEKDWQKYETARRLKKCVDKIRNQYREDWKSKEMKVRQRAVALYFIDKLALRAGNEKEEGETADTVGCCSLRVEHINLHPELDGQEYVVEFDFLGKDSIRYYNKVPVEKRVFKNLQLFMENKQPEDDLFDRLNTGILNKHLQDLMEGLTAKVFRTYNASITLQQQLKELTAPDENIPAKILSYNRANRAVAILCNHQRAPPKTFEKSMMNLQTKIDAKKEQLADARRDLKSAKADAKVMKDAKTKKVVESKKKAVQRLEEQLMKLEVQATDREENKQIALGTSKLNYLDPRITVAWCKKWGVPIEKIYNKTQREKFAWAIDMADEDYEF

[23] = AUC (0 to t) in male Sprague-Dawley rat at 100 mg/kg, ip; format: ADME, organism-based; design: dose 100 mg/kg, route ip; settings: in vivo
HCCLM9 [24] = test: Induction of apoptosis in human HCCLM9 cells assessed as increase in cleaved caspase-3 expression at 3.75 to 15 uM; format: functional, cell-based; settings: dose 3.75-15 µM
Huh-7 [25] = test: Induction of mitochondrial dysfunction in human Huh-7 cells assessed as decrease in MMP levels at 5 to 20 uM; format: functional, cell-based; settings: dose 5-20 µM
[26] = Cmax in male Sprague-Dawley rat at 100 mg/kg, ip; format: ADME, organism-based; design: dose 100 mg/kg, route ip; settings: in vivo
Huh-7 [27] = test: Anticlonogenic activity in human Huh-7 cells at 2 to 8 uM measured by colony formation assay; format: functional, cell-based; settings: dose 2-8 µM
HT-29 = test: Antiproliferative activity against human HT-29 cells after 72 hrs by MTT assay; format: functional, cell-based; settings: HT-29, 72 h
Huh-7 [28] = test: Inhibition of cell migration in human Huh-7 cells at 2 to 8 uM after 24 hrs by transwell assay; format: functional, cell-based; settings: dose 2-8 µM
RKO = test: Antiproliferative activity against human RKO cells after 72 hrs by MTT assay; format: functional, cell-based
HCCLM9 [29] = test: Antitumor activity against human HCCLM9 cells xenografted in male BALB/c nude mouse assessed as inhibition of tumor growth at 15 mg/kg, iv administered once a day for 21 days; format: functional, organism-based; settings: time 21.0 day
SW480 = test: Antiproliferative activity against human SW480 cells after 72 hrs by MTT assay; format: functional, cell-based; settings: SW480, 72 h
MDA-MB-231 = test: Antiproliferative activity against human MDA-MB-231 cells after 72 hrs by MTT assay; format: functional, cell-based; settings: MDA-MB-231, 72 h
Huh-7 [30] = test: Induction of mitochondrial apoptosis in human Huh-7 cells assessed as inhibition of p-PI3K levels at 5 to 20 uM measured after 48 hrs by Western blot analysis; format: functional, cell-based; settings: dose 5-20 µM
HGC-27 = test: Antiproliferative activity against human HGC-27 cells after 72 hrs by MTT assay; format: functional, cell-based; settings: HGC-27, 72 h
HCCLM9 [31] = test: Induction of apoptosis in human HCCLM9 cells assessed as increase in cleaved caspase-9 expression at 3.75 to 15 uM; format: functional, cell-based; settings: dose 3.75-15 µM
Huh-7 [32] = test: Induction of apoptosis in human Huh-7 cells assessed as increase in cleaved caspase-9 expression at 5 to 20 uM; format: functional, cell-based; settings: dose 5-20 µM
HCCLM9 [33] = test: Induction of cell cycle arrest in human HCCLM9 cells assessed as decrease in cell accumulation at S phase at 3.75 to 15 uM measured after 48 hrs by flow cytometry analysis; format: functional, cell-based; settings: dose 3.75-15 µM
HCCLM9 [34] = test: Induction of mitochondrial apoptosis in human HCCLM9 cells assessed as inhibition of p-PI3K levels at 3.75 to 15 uM measured after 48 hrs by Western blot analysis; format: functional, cell-based; settings: dose 3.75-15 µM
DNA = test: Binding affinity to DNA (unknown origin) assessed as DNA intercalation at 100 uM measured by unwinding assay relative to control; format: nucleic-acid assay; settings: Homo sapiens

IC50 (A549): 36.3 µM
MRT last [2]: 1 h
IC50 (HepG2): 52 µM
IC50 (HL-60): 59.1 µM
Tmax [12]: 1 h
CL/F [14]: 20.42 (mg)/(ug/ml)/hr
IC50 (MCF7): 22.4 µM
IC50 (SK-HEP1): 16.5 µM
IC50 (HCCLM9 [19]): 6.83 µM
inhibition [22]: Active
AUC(0-t) [23]: 31600 ng·h/mL
Cmax [26]: 8900 ng/mL
IC50 (HT-29): 31 µM
IC50 (SW480): 9.04 µM
IC50 (MDA-MB-231): 19.9 µM
Activity (DNA): Active
SMILES: CNCc1cc2c(cc1-c1cc3ccc4c(c3cn1)OCO4)OCO2
inhibition (HCCLM9 [1]): Active
Activity (Huh-7 [3]): Active
Activity (HCCLM9 [4]): Active
Activity (Huh-7 [5]): Active
Activity (HCCLM9 [6]): Active
Activity (Huh-7 [7]): Active
Activity (HCCLM9 [8]): Active
Activity (HCCLM9 [9]): Active
Activity (Huh-7 [10]): Active
inhibition (HCCLM9 [11]): Active
Activity (HCCLM9 [13]): Active
Activity [15]: Non-Toxic
Activity (HCCLM9 [16]): Active
inhibition (Huh-7 [17]): Active
Activity (HCCLM9 [18]): Active
Activity (Huh-7 [20]): Active
Activity (HCCLM9 [21]): Active
Activity (HCCLM9 [24]): Active
Activity (Huh-7 [25]): Active
Activity (Huh-7 [27]): Active
inhibition (Huh-7 [28]): Active
IC50 (RKO): 47.8 µM
Activity (HCCLM9 [29]): Active
Activity (Huh-7 [30]): Active
IC50 (HGC-27): 34.2 µM
Activity (HCCLM9 [31]): Active
Activity (Huh-7 [32]): Active
Activity (HCCLM9 [33]): Active
Activity (HCCLM9 [34]): Active
